Earlier results in patent US20250319089A1, “STABLE LYOPHILISATES COMPRISING 5,10-METHYLENE-(6R)-TETRAHYDROFOLIC ACID” (Merck Patent GMBH, priority 2022, published 2025).

purity after 24 hours compared to the starting purity (24 hours following dissolution in water): 44.9% | purity after 7 hours (re-constituted lyophilizate, 7 hours): 84% | loss of purity per hour (degradation rate) (re-constituted lyophilizate, linear regression): 2.3 % purity per hour
SMILES: Nc1nc2c(c(=O)[nH]1)N1CN(c3ccc(C(=O)N[C@@H](CCC(=O)O)C(=O)O)cc3)C[C@H]1CN2 [5,10-methylene-(6R,S)-tetrahydrofolic acid]
